For four compounds, KLS-positive rate, Viable cell count and mCherry-positive rate results are on record in patent US20230094952A1, “Method for Culturing Hematopoietic Stem Cells” (Sumitomo Pharma Co., Ltd., priority 2019, published 2023).

Each structure is given as a SMILES string.

In the experiment the test system is mouse long-term hematopoietic stem cells. In words: Reproducibility and concentration dependence test: 1-week culture of sorted Hoxb5-tri-mCherry mouse long-term hematopoietic stem cells, flow cytometry. To be noted: day 7 of culture, n=2. It counts as cell-based. In a few lines: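 Hoxb5-tri-mCherry+ LT-HSCs (Lin−c-Kit+Sca-1+Flk2−CD34−/lo CD150+) were sorted from mouse bone marrow at 10 cells/well into StemSpan SFEM with SCF and TPO. Cells were cultured with compound for 1 week at 37°C, 5% CO2. Flow cytometry then measured KLS and mCherry+ fractions and cell counts.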
Background: In flow cytometry, cells or beads pass a laser one at a time.

In turn, `C[C@H]1[C@H](c2ccco2)O[C@@H]2O[C@@]3(C)CC[C@H]4[C@H](C)CC[C@@H]1[C@@]24OO3` [Example 1-7, (3R,5aS,6R,8aS,9R,10R,12R,12aR)-10-(Furan-2-yl)-3,6,9-trimethyldecahydro-12H-3,12-epoxypyrano[4,3-j][1,2]benzodioxepine] had a KLS-positive rate (Table 4, compound 0.1 μM) of 26.9%; a KLS-positive rate (Table 4, compound 0.3 μM) of 19.6%; a KLS-positive rate (Table 4, compound 1 μM) of 36.1%; a KLS-positive rate (Table 4, compound 3 μM) of 0.0%; a KLS-positive rate (Table 4, compound 10 μM) of 0.0%. The Viable cell count is given as 225.0 cell (Table 4, compound 0.1 μM); 269.0 cell (Table 4, compound 0.3 μM); 73.0 cell (Table 4, compound 1 μM); 0.0 cell (Table 4, compound 3 μM); 0.0 cell (Table 4, compound 10 μM). The mCherry-positive rate is 42.9% (Table 4, compound 0.1 μM); 62.2% (Table 4, compound 0.3 μM); 96.7% (Table 4, compound 1 μM); 0.0% (Table 4, compound 3 μM); 0.0% (Table 4, compound 10 μM).
Consider `C[C@H]1[C@H](C(N)=O)O[C@@H]2O[C@@]3(C)CC[C@H]4[C@H](C)CC[C@@H]1[C@@]24OO3` [Example 1-16, (3R,5aS,6R,8aS,9R,10R,12R,12aR)-3,6,9-Trimethyldecahydro-12H-3,12-epoxypyrano[4,3-j][1,2]benzodioxepine-10-carboxamide], for which the KLS-positive rate by setting is: (Table 4, compound 0.1 μM) 13.3%; (Table 4, compound 0.3 μM) 11.6%; (Table 4, compound 1 μM) 33.4%; (Table 4, compound 3 μM) 9.2%; (Table 4, compound 10 μM) 52.6%. Further, the Viable cell count reads like this: (Table 4, compound 0.1 μM) 504.5 cell; (Table 4, compound 0.3 μM) 388.5 cell; (Table 4, compound 1 μM) 310.0 cell; (Table 4, compound 3 μM) 182.5 cell; (Table 4, compound 10 μM) 29.0 cell. The mCherry-positive rate is, setting by setting: (Table 4, compound 0.1 μM) 6.8%; (Table 4, compound 0.3 μM) 29.2%; (Table 4, compound 1 μM) 68.2%; (Table 4, compound 3 μM) 92.4%; (Table 4, compound 10 μM) 99.0%.
Turning to `COCCO[C@H]1O[C@@H]2O[C@@]3(C)CC[C@H]4[C@H](C)CC[C@@H]([C@H]1C)[C@@]24OO3` [Example 1-23, (3R,5aS,6R,8aS,9R,10S,12R,12aR)-10-(2-methoxyethoxy)-3,6,9-trimethyldecahydro-12H-3,12-epoxypyrano[4,3-j][1,2]benzodioxepine], the KLS-positive rate (Table 4, compound 0.1 μM) is listed as 12.4%; the KLS-positive rate (Table 4, compound 0.3 μM) worked out at 15.4%; the KLS-positive rate (Table 4, compound 1 μM) is on record as 5.3%; the KLS-positive rate (Table 4, compound 3 μM) came out at 23.2%; the KLS-positive rate (Table 4, compound 10 μM) came to 42.3%. Further, the Viable cell count is, setting by setting: (Table 4, compound 0.1 μM) 712.5 cell; (Table 4, compound 0.3 μM) 509.0 cell; (Table 4, compound 1 μM) 729.0 cell; (Table 4, compound 3 μM) 252.0 cell; (Table 4, compound 10 μM) 63.5 cell. Moreover, the mCherry-positive rate runs as follows: (Table 4, compound 0.1 μM) 17.9%; (Table 4, compound 0.3 μM) 46.5%; (Table 4, compound 1 μM) 72.7%; (Table 4, compound 3 μM) 97.3%; (Table 4, compound 10 μM) 100.0%.
As to `CO[C@H]1O[C@@H]2O[C@@]3(C)CC[C@H]4[C@H](C)CC[C@@H]([C@H]1C)[C@@]24OO3` [Example 1-30, artemether, reference compound], the KLS-positive rate is, setting by setting: (Table 3, compound 0.1 μM) 50.25%; (Table 3, compound 0.3 μM) 22.05%; (Table 3, compound 1 μM) 21.4%; (Table 3, compound 3 μM) 50.3%; (Table 3, compound 10 μM) 65.9%; (Table 4, compound 0.1 μM) 35.3%. The KLS-positive rate reads like this: (Table 4, compound 0.3 μM) 38.4%; (Table 4, compound 1 μM) 40.1%; (Table 4, compound 3 μM) 57.4%; (Table 4, compound 10 μM) 71.4%. The Viable cell count reads like this: (Table 3, compound 0.1 μM) 1109 cell; (Table 3, compound 0.3 μM) 2632 cell; (Table 3, compound 1 μM) 1170.5 cell; (Table 3, compound 3 μM) 115 cell; (Table 3, compound 10 μM) 108.5 cell; (Table 4, compound 0.1 μM) 238.0 cell. The Viable cell count stood at 184.0 cell (Table 4, compound 0.3 μM); 135.5 cell (Table 4, compound 1 μM); 44.5 cell (Table 4, compound 3 μM); 65.0 cell (Table 4, compound 10 μM). The compound further returned a mCherry-positive rate (Table 3, compound 0.1 μM) of 67.2%; a mCherry-positive rate (Table 3, compound 0.3 μM) of 36.85%; a mCherry-positive rate (Table 3, compound 1 μM) of 57.85%; a mCherry-positive rate (Table 3, compound 3 μM) of 98.05%; a mCherry-positive rate (Table 3, compound 10 μM) of 94.45%; a mCherry-positive rate (Table 4, compound 0.1 μM) of 71.2%. The mCherry-positive rate is 100.0% (Table 4, compound 0.3 μM); 99.0% (Table 4, compound 1 μM); 100.0% (Table 4, compound 3 μM); 98.2% (Table 4, compound 10 μM).
